Source: patent US20250152564A1, “PROPYLENE KETONE-CONTAINING BIOINHIBITOR, PREPARATION METHOD THEREFOR, AND USE THEREOF” (SHANGHAI HANSOH BIOMEDICAL CO., LTD., priority 2022, published 2025)

How the values were obtained:
FGFR2 V564F = FGFR2 V564F (Homo sapiens (Human), UniProt P21802, V564F); experiment: TR-FRET kinase inhibition assay, FGFR2 V564F; assay type: biochemical; conditions: ATP Km concentration (20 μM)
Experimental: (§1) To measure the IC50 values of the compounds against FGFR1, FGFR2, FGFR3, FGFR4, and FGFR2 V564F at ATP Km concentrations by TR-FRET method.
(§2) TR-FRET (time-resolved fluorescence resonance energy transfer) method was used to detect the inhibitory activity of the compounds on FGFR1, FGFR2, FGFR3, FGFR4, and FGFR2 V564F kinase region fragments. The highest detection concentration of the compounds in 5 kinase experiments was 1000 nM, which was diluted in 3 folds, with a total of 11 concentrations (1000 nM to 0.017 nM). A kinase buffer (50 mM HEPES pH 7.5, 1 mM EGTA, 10 mM MgCl2, 2 mM DTT, and 0.01% Tween-20) was used to prepare 4× enzyme solution, 4× compound solutions diluted in gradient, and a 2×ATP/Peptide substrate solution. To a 384-well plate, 2.5 μL of enzyme solution and 2.5 μL of diluted […] compound solution were added, and 5 μL of 2×ATP/Peptide substrate solution was then added. After reacting at room temperature for 60 minutes for FGFR1, FGFR2, FGFR3, and FGFR2 V564F kinases, and 120 minutes for FGFR4 kinase, 10 μL of a 2× termination and detection mixed liquid prepared with 1×LANCE detection buffer with an EDTA concentration of 20 mM and a Europium-anti-phosphotyrosine (PT66) concentration of 2 nM was added to each well of the plate. After reacting at room temperature for 60 minutes for FGFR1, FGFR2, FGFR3, and FGFR4, and 30 minutes for FGFR2 V564F, the fluorescence signal value in each well of the plate was measured by a microplate reader.
(§3) 1) Inhibition rate (%): Calculation was performed on the raw data (665 nm/620 nm reading ratio) according to the following formula to obtain the inhibition rate. Inhibition rate %=[(mean value in positive control well−value in sample well)/(mean value in positive control well−mean value in negative control well)]×100, wherein the positive control well was a reaction well without a compound […], and the negative control well was a reaction wells without an enzyme.
(§4) 2) Curve fitting: Log(inhibitor) vs. response—Variable slope (four parameters) in GraphPad Prism 6 was used for fitting equation analysis of the compound concentration and the corresponding inhibition rate, and the curve was fitted to obtain the IC50 values of the compounds.

FGFR2 = FGFR2 (Homo sapiens (Human), UniProt P21802); experiment: TR-FRET kinase inhibition assay, FGFR2; assay type: biochemical; conditions: ATP Km concentration (30 μM)
Sequence of FGFR2 (P21802 481-770): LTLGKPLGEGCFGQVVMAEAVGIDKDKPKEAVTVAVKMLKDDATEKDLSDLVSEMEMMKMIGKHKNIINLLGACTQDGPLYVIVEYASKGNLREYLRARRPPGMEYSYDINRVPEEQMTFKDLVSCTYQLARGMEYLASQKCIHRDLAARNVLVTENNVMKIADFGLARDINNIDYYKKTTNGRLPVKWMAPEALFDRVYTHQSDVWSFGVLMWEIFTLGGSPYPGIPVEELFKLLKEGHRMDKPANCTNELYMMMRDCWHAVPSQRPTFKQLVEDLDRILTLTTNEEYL
Experimental: as §1, §2, §3, §4

FGFR1 = FGFR1 (Homo sapiens (Human), UniProt P11362); experiment: TR-FRET kinase inhibition assay, FGFR1; assay type: biochemical; conditions: ATP Km concentration (30 μM)
Sequence of FGFR1 (P11362 478-767): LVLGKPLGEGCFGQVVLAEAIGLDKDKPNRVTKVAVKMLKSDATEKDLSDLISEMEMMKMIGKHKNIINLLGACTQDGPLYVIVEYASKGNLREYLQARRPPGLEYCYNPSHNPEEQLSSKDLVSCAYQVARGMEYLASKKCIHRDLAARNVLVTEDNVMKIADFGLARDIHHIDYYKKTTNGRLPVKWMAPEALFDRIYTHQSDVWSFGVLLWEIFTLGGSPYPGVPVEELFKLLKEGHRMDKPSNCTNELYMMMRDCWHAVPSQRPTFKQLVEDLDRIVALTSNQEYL
Experimental: as §1, §2, §3, §4

[1] = system: BaF3 FGFR2-BICC1 V564F cells; experiment: CellTiter-Glo cell proliferation inhibition, BaF3 FGFR2-BICC1 V564F; assay type: cell-based; conditions: Mus musculus, 72 h, read-out: BaF3 FGFR2-BICC1 V564F inhibitory activity IC50
Experimental: (§5) To evaluate inhibitory effects of the compounds on the proliferation of NCI-H716, SNU-16 and BaF3-FGFR2-BICC1 V564F cells by cell proliferation inhibition experiments.
(§6) CellTiter-Glo method was used to detect inhibitory effects of the compounds on the proliferation of NCI-H716, SNU-16 and BaF3 FGFR2-BICC1 V564F cells. The highest detection concentration of the compounds was 1000 nM, which was diluted in 3 folds, with a total of 9 concentrations (1000 nM to 0.15 nM). After the cells were plated at an appropriate density, compounds were added the next day and incubated for 72 h before detection using the […] detection kit.
as §3, with “(%):” for “(%): Calculation was performed on the raw data (665 nm/620 nm reading ratio) according to the following formula to obtain the inhibition rate.”
as §4

NCI-H716 cells = experiment: CellTiter-Glo cell proliferation inhibition, NCI-H716; assay type: cell-based; conditions: Homo sapiens, 72 h, read-out: NCI-H716 cell proliferation inhibition rate IC50
Experimental: as §5, §6
as §3, with “(%):” for “(%): Calculation was performed on the raw data (665 nm/620 nm reading ratio) according to the following formula to obtain the inhibition rate.”
as §4

[2] = Pharmacokinetic experiment in SD rats after oral administration; assay type: in vivo; conditions: 5 mg/kg, plasma
Experimental: To study the pharmacokinetic behavior of the compounds of the present invention in the rat body (plasma) after oral administration at a dose of 5 mg/kg using SD rats as test animals.
3 SD rats/group, male, from Shanghai Jiesijie Experimental Animal Co., Ltd., animal production license number (SCXK (Shanghai) 2013-0006 N0.311620400001794).
PO, 10% solutol HS15-0.5% CMC-Na was dissolved by ultrasound and prepared into a clear solution or homogeneous suspension.
3 SD rats/group, male; p.o. respectively at a dose of 5 mg/kg and an administration volume of 10 mL/kg after the […] were fasted overnight.
After oral administration to rats, at 0.25, 0.5, 1, 2, 4, 6, 8 and 24 hours, 0.2 mL of blood was collected from the jugular vein, placed in an EDTA-K2 test tube, centrifuged at 6000 rpm for 6 min at 4° C. to separate the plasma, which was stored at −80° C.
1) 100 μL of acetonitrile was added to 20 μL of plasma sample for pelleting, and it was mixed and centrifuged at 3500×g for 5-20 min.
2) The treated supernatant solution was taken and subjected to LC/MS/MS to analyze the concentrations of the test compounds. LC/MS/MS analysis instrument: AB Sciex API 4000 Qtrap.
• Liquid phase conditions: Shimadzu LC-20AD pump • Chromatographic column: Waters Xbridge C18 5 μm, 4.6×50 mm mobile phase: liquid A was 0.1% aqueous formic acid solution, and liquid B was methanol • Flow rate: 1.0 mL/min • Elution time: 0-4.0 min, the eluent was as follows: […]

Sequence of FGFR2 V564F (P21802 481-770 V564F): as the sequence (P21802 481-770) above, with V84F counted along it

Row | Compound | IC50 (FGFR2 V564F) [nM] | IC50 (FGFR2) [nM] | IC50 (FGFR1) [nM] | IC50 [1] [nM] | IC50 (NCI-H716 cells) [nM] | AUC(0-t) ([2]; male, Sprague-Dawley (SD), rat, po, read-out: Area under the curve AUC0-t) [ng·h/mL] | AUC(0-inf) ([2]; male, Sprague-Dawley (SD), rat, po, read-out: Area under the curve AUC0-∞) [ng·h/mL] | half-life ([2]; male, Sprague-Dawley (SD), rat, po, read-out: Half-life t1/2 (converted)) [h] | MRT ([2]; male, Sprague-Dawley (SD), rat, po, read-out: Mean residence time MRT) [h] | Cmax ([2]; male, Sprague-Dawley (SD), rat, po, read-out: Plasma concentration Cmax) [ng/mL] | Time to peak tmax ([2]; p.o.) [h]
1 | C=CC(=O)N1CC[C@H](n2nc(C#Cc3ccc4c(c3)ncn4CC)c3c(N)ncc(C(=O)CC)c32)C1 [Example 57, (S)-1-(3-(4-amino-3-((1-ethyl-1H-benzo[d]imidazol-5-yl)ethynyl)-7-propionyl-1H-pyrazolo[4,3-c]pyridin-1-yl)pyrrolidin-1-yl)prop-2-en-1-one] | 0.5 | 1.3 | 5.6 | 2.5 |  |  |  |  |  |  | 
2 | C=CC(=O)N1CC[C@H](n2nc(C#Cc3ccc4c(c3)ncn4C)c3c(N)ncc(C(=O)C(C)C)c32)C1 [Example 66] | 0.8 | 2.9 | 6.8 | 2.8 |  |  |  |  |  |  | 
3 | C=CC(=O)N1CC[C@H](n2nc(C#Cc3cc4ncn(C5CC5)c4cc3F)c3c(N)ncc(-c4nccs4)c32)C1 [Example 34, (S)-1-(3-(4-amino-3-((1-cyclopropyl-6-fluoro-1H-benzo[d]imidazol-5-yl)ethynyl)-7-(thiazol-2-yl)-1H-pyrazolo[4,3-c]pyridin-1-yl)pyrrolidin-1-yl)prop-2-en-1-one] | 2.2 | 3.2 | 6.6 | 2.9 |  |  |  |  |  |  | 
4 | C=CC(=O)N1CC[C@H](n2nc(C#Cc3cc4ncn(C)c4cc3F)c3c(N)ncc(C)c32)C1 [Example 18, (S)-1-(3-(4-amino-3-((6-fluoro-1-methyl-1H-benzo[d]imidazol-5-yl)ethynyl)-7-methyl-1H-pyrazolo[4,3-c]pyridin-1-yl)pyrrolidin-1-yl)prop-2-en-1-one] |  |  |  |  | 1.82 |  |  |  |  |  | 
5 | C=CC(=O)N1CC[C@H](n2nc(C#Cc3ccc4c(c3)ncn4C3CC3)c3c(N)ncc(C(=O)CC)c32)C1 [Example 39, (S)-1-(3-(4-amino-3-((1-cyclopropyl-1H-benzo[d]imidazol-5-yl)ethynyl)-7-propionyl-1H-pyrazolo[4,3-c]pyridin-1-yl)pyrrolidin-1-yl)prop-2-en-1-one] | 0.6 | 1.7 | 6.1 | 2.2 |  | 4190 | 4240 | 1 | 2.63 | 1250 | 2
6 | C=CC(=O)N1CC[C@H](n2nc(C#Cc3cc4ncn(CC)c4cc3F)c3c(N)ncc(-c4nccs4)c32)C1 [Example 22, (S)-1-(3-(4-amino-3-((1-ethyl-6-fluoro-1H-benzo[d]imidazol-5-yl)ethynyl)-7-(thiazol-2-yl)-1H-pyrazolo[4,3-c]pyridin-1-yl)pyrrolidin-1-yl)prop-2-en-1-one] | 0.8 | 1.6 | 6.5 |  |  |  |  |  |  |  | 
7 | C=CC(=O)N1CC[C@H](n2nc(C#Cc3cc4nc(C)n(C5CC5)c4cc3Cl)c3c(N)ncc(C(C)=O)c32)C1 [Example 54, (S)-1-(3-(7-acetyl-4-amino-3-((6-chloro-1-cyclopropyl-2-methyl-1H-benzo[d]imidazol-5-yl)ethynyl)-1H-pyrazolo[4,3-c]pyridin-1-yl)pyrrolidin-1-yl)prop-2-en-1-one] | 0.9 | 3.4 | 5.5 | 2.2 |  |  |  |  |  |  | 
8 | [2H]C([2H])([2H])n1cnc2cc(C#Cc3nn([C@H]4CCN(C(=O)C=C)C4)c4c(-c5nccs5)cnc(N)c34)c(F)cc21 [Example 25, (S)-1-(3-(4-amino-3-((6-fluoro-1-(methyl-d3)-1Hbenzo[d]imidazol-5-yl)ethynyl)-7-(thiazol-2-yl)-1Hpyrazolo[4,3-c]pyridin-1-yl)pyrrolidin-1-yl)prop-2-en-1-one] | 0.6 | 1.5 | 5.7 |  |  |  |  |  |  |  | 
9 | C=CC(=O)N1CC[C@H](n2nc(C#Cc3cc4nc(C)n(C5CC5)c4cc3F)c3c(N)ncc(C(C)=O)c32)C1 [Example 55, (S)-1-(3-(7-acetyl-4-amino-3-((1-cyclopropyl-6-fluoro-2-methyl-1H-benzo[d]imidazol-5-yl)ethynyl)-1H-pyrazolo[4,3-c]pyridin-1-yl)pyrrolidin-1-yl)prop-2-en-1-one] | 1 | 2.8 | 4.4 | 2.2 |  |  |  |  |  |  | 
10 | C=CC(=O)N1CC[C@H](n2nc(C#Cc3cc4ncn(C5CC5)c4cc3Cl)c3c(N)ncc(C(C)=O)c32)C1 [Example 44, (S)-1-(3-(7-acetyl-4-amino-3-((6-chloro-1-cyclopropyl-1H-benzo[d]imidazol-5-yl)ethynyl)-1H-pyrazolo[4,3-c]pyridin-1-yl)pyrrolidin-1-yl)prop-2-en-1-one] | 0.4 | 2.2 | 4.4 | 0.8 |  |  |  |  |  |  | 
11 | C=CC(=O)N1CC[C@H](n2nc(C#Cc3c(F)cc4c(ncn4C)c3F)c3c(N)ncc(C(C)=O)c32)C1 [Example 31, (S)-1-(3-(7-acetyl-4-amino-3-((4,6-difluoro-1-methyl-1H-benzo[d]imidazol-5-yl)ethynyl)-1H-pyrazolo[4,3-c]pyridin-1-yl)pyrrolidin-1-yl)prop-2-en-1-one] | 0.8 | 1.2 | 3.5 | 1.4 |  |  |  |  |  |  | 
12 | C=CC(=O)N1CC[C@H](n2nc(C#Cc3cc4ncn(C5CC5)c4cc3Cl)c3c(N)ncc(C(=O)C4CC4)c32)C1 [Example 46, (S)-1-(3-(4-amino-3-((6-chloro-1-cyclopropyl-1H-benzo[d]imidazol-5-yl)ethynyl)-7-(cyclopropanecarbonyl)-1H-pyrazolo[4,3-c]pyridin-1-yl)pyrrolidin-1-yl)prop-2-en-1-one] | 1.1 | 3.5 | 5.2 | 0.2 |  |  |  |  |  |  | 
13 | C=CC(=O)N1CC[C@H](n2nc(C#Cc3ccc4ccnn4c3)c3c(N)ncc(C(=O)C4CC4)c32)C1 [Example 73, (S)-1-(3-(4-amino-7-(cyclopropanecarbonyl)-3-(pyrazolo[1,5-a]pyridine-6-ethynylene)-1H-pyrazolo[4,3-c]pyridin-1-yl)pyrrolidine-1-methyl)prop-2-en-1-one] | 0.9 | 0.7 | 2.3 |  |  |  |  |  |  |  | 
